Counter-ions that a name gives are not always drawn.
Legend:
[1] = biological target: T1, Human SSAO/VAP-1 (Homo sapiens, UniProt Q16853); test: Inhibition of amine oxidase activity of purified human SSAO/VAP-1 (Amplex Red); type: biochemical; conditions: purified human SSAO, 300 μM benzylamine
T1 sequence (Q16853 1-763): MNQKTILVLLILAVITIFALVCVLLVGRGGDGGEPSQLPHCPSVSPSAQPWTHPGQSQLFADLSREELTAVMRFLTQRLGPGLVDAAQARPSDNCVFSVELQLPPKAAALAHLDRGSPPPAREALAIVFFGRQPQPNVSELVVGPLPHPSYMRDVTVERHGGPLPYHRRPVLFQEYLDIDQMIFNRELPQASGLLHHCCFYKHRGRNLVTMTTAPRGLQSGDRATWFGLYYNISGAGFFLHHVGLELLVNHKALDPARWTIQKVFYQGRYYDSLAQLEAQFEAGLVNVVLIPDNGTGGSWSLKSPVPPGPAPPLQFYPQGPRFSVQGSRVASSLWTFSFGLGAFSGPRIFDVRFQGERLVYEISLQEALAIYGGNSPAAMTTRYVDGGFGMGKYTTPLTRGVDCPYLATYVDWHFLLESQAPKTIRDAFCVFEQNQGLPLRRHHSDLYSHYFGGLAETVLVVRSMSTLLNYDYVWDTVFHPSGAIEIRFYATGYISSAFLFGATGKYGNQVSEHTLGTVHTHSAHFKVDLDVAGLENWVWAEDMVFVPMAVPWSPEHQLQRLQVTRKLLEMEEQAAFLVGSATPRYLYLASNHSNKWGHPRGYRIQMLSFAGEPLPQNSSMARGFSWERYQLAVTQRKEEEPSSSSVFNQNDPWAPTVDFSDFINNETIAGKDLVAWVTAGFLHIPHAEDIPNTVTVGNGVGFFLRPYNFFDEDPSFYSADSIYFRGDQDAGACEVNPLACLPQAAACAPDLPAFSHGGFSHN
Experimental: (§1) To measure the SSAO activity, adipocyte homogenate (0.5 mg/mL) or adipocytes (adhering cells) containing 0.5 mM pargyline, or purified human SSAO was incubated in 0.1 M sodium phosphate buffer pH 7.4 with varying concentrations of test compounds for 30 min at 37° C. The homogenate was then incubated at 37° C. with 60 μM Amplex® Red, 0.75 U/mL HRP and 40 μM benzylamine (mouse SSAO) or 300 μM benzylamine (human SSAO) and the formation of resorufin was measured (excitation range 530-560 nm and emission at 590 nm) every 10 min in either a Tecan Infinite 200 or a BMG plate reader. The IC50 values were estimated using Graphpad Prism software. The IC50 is an estimation of the concentration of the test compound to inhibit the amine oxidase activity of SSAO/VAP-1 by 50%. The IC50 values of certain invention compounds are included in Table 1.

[2] = biological target: T2, Mouse SSAO/VAP-1 (Mus musculus, UniProt O70423); test: Inhibition of amine oxidase activity of mouse SSAO/VAP-1 (3T3-L1 adipocytes, Amplex Red); type: biochemical; conditions: 3T3-L1 adipocyte SSAO, 40 μM benzylamine
T2 construct: Adipocytes were used as an SSAO source either as adherent cells or as a homogenate; endogenous in cells; host or cells: 3T3-L1 murine fibroblasts (ATCC) differentiated into adipocytes
T2 sequence (O70423 1-765): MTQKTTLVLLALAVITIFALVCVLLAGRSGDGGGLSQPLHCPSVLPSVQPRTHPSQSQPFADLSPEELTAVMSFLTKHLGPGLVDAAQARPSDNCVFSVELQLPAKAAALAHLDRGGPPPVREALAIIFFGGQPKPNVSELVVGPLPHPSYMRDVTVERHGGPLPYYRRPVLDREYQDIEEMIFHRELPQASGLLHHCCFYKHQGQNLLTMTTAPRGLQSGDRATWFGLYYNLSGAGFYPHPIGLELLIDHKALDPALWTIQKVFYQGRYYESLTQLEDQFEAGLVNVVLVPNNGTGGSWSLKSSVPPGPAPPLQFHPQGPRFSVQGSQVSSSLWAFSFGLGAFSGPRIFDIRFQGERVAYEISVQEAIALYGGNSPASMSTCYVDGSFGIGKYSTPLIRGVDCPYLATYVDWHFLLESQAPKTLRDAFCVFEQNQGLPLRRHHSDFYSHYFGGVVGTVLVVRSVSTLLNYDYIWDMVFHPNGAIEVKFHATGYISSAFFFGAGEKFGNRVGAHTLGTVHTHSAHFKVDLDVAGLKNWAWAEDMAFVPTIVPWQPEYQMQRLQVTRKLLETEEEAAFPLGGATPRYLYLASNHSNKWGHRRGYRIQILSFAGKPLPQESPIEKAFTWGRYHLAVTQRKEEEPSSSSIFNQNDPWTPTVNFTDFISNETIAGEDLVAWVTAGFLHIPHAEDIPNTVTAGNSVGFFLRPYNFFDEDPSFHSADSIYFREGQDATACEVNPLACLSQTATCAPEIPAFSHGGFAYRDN
Description: 3T3-L1 Murine fibroblasts were purchased from the American Type Culture Collection (ATCC, Rockville, Md.). Dulbecco's Modified Eagle Medium (DMEM) and fetal calf serum (FCS), antibiotics and Amplex® Red were obtained from Invitrogen (Carlsbad, Calif.). Tissue culture plastics and black clear-bottom 96 well plates were from BD Falcon (Bedford, Mass.). Bicinchoninic acid (BCA) reagent was from Pierce (Rockford, Ill.). All other materials were obtained from Sigma (St. Louis, Mo.).
3T3-L1 Fibroblasts were cultured in DMEM supplemented with 10% heat-inactivated FCS, 2 mM L-glutamine, 100 U/L penicillin and 100 μg/L streptomycin at 37° C. in 5% CO2. For differentiation into adipocytes, fibroblasts were cultured in DMEM with FCS for 1 or 2 days postconfluence, after which the cells were cultured for 3 days in DMEM containing 10% FCS, 350 nM insulin, 0.5 mM 3-isobutyl-1-methylxanthine, 250 nM dexamethasone, and 400 nM biotin and for 3 days in DMEM containing 10% FCS and 350 nM insulin. After differentiation, adipocytes were maintained in DMEM supplemented with 10% FCS. Adipocytes were used for experiments 8 to 11 days after the onset of differentiation, and the medium was renewed 2 or 3 days prior to each experiment. For culturing in black clear-bottom 96-well plates, cells were seeded at a 1:1 cell surface ratio, and differentiation was initiated 4 days postseeding. Cells were used between days 6-12 post-differentiation and between passages 7 and 20. Adipocytes were used as an SSAO source either as adherent cells or as a homogenate.
To prepare homogenate, 10 cm dishes of adipocytes were washed with HES buffer (20 mM HEPES, 1 mM EDTA, 250 mM sucrose, pH 7.4) and scraped in HES buffer containing 10 μg/mL leupeptin, 10 μM pepstatin and 1 mM PMSF. Cells were lysed by passage through a 23 G needle followed by passage through a 27 G needle. The lysate was spun at 500 g for 5 min and fat was removed. Protein concentration of the supernatant was measured using a BCA assay according to the manufacturer's instructions. The homogenate was stored at −80° C. until needed.
as §1

IC50 ([1]; 30 min at 37° C. preincubation) [nM]	IC50 ([2]; 30 min at 37° C. preincubation) [nM]	IC50 [1] [nM]	IC50 [2] [nM]	SMILES
< 1000	< 1000	–	–	Cc1nc2cc(OC/C(F)=C\CN)ccc2s1.Cl [(E)-3-Fluoro-4-(2-methylbenzo[d]thiazol-5-yloxy)but-2-en-1-amine hydrochloride]
< 1000	< 1000	–	–	CS(=O)(=O)c1ccc(OC/C(F)=C\CN)cc1.Cl [(E)-3-Fluoro-4-(4-(methylsulfonyl)phenoxy)but-2-en-1-amine hydrochloride]
–	–	21	1	NC/C(=C/F)CCc1ccc(F)cc1 [Mofegiline, reference compound]

Second part, the compound before the results:

SMILES	IC50 ([1]; 30 min at 37° C. preincubation) [nM]	IC50 ([2]; 30 min at 37° C. preincubation) [nM]	IC50 [1] [nM]	IC50 [2] [nM]
C[C@H](NS(=O)(=O)c1ccc(OC/C(F)=C\CN)cc1)c1ccccc1.Cl [(S,E)-4-(4-Amino-2-fluorobut-2-enyloxy)-N-(1-phenylethyl)benzenesulfonamide]	< 1000	< 1000	–	–
NC/C=C(/F)COc1ccc(C(=O)NC2CCCCC2)cc1 [(E)-4-(4-amino-2-fluorobut-2-enyloxy)-N-cyclohexylbenzamide hydrochloride]	< 1000	< 1000	–	–

— patent US8426587B2, “Haloallylamine inhibitors of SSAO/VAP-1 and uses therefor” (Pharmaxis Ltd., priority 2007, dated 2013)
